Laboratory results as given in paper PMC4081560 (PLoS ONE, 2014).
Values joined by “and” are separate entries in the source; they are usually repeats but may differ in a detail not shown here. Equal entries are not always repeated. Where two headings read alike, the source gives them in different places. Marks after values point to notes of the source that are not given here.

Experiments:
Design in all cases: species or system DBA/2 mice
Conditions in all cases: mouse, in vivo
[1] = tested on: oseltamivir-resistant K/2785 virus
[2] = tested on: oseltamivir-resistant K/2785 virus; remark: listed apart in the source
[3] = tested on: oseltamivir-resistant K/2785 virus; remark: listed apart in the source

NC(=O)c1nc(F)cnc1O [Favipiravir, 6-fluoro-3-hydroxy-2-pyrazinecarboxamide]
MDD ± SD (mean day of death prior to 14 dpi) [1]: 9.8 ± 0.8 days and 10.0 ± 0.0 days and 11 days
Survival/total [1]: 2/7 (28.6%) and 4/7 (57.1%) and 6/7 (85.7%)** and 7/7 (100.0%)***
infected mice saved from death [1]: more than 80%
MDD ± SD [2]: 10.6 ± 0.9 days and 10.7 ± 0.6 days and 9.4 ± 0.5 days
Survival/total [2]: 5/10 (50.0%)* and 8/10 (80.0%)*** and 3/10 (30.0%)
Synergism (MacSynergy II) [2]: 0%
Viral titers in lungs ± SD [3]: 6.95±0.14 log10(PFU/ml/g) and 5.75±0.19 log10(PFU/ml/g) and 7.31±0.01 log10(PFU/ml/g) and 6.88±0.12 log10(PFU/ml/g)

CCC(CC)[C@H](NC(C)=O)[C@@H]1[C@H](O)[C@@H](C(=O)O)C[C@H]1N=C(N)N [Peramivir]
MDD ± SD (mean day of death prior to 14 dpi) [1]: 10.1 ± 1.1 days and 10.2 ± 0.4 days and 10.5 ± 2.1 days and 11.0 ± 1.4 days
Survival/total [1]: 0/7 (0.0%) and 1/7 (14.3%) and 5/7 (71.4%)*
MDD ± SD [2]: 9.8 ± 1.5 days and 10.1 ± 1.2 days and 10.6 ± 0.9 days
Survival/total [2]: 0/10 (00.0%) and 2/10 (20.0%) and 5/10 (50.0%)*
Synergism (MacSynergy II) [2]: 0%
Viral titers in lungs ± SD [3]: 7.34±0.17 log10(PFU/ml/g) and 6.30±0.13 log10(PFU/ml/g) and 7.13±0.09 log10(PFU/ml/g) and 6.29±0.27 log10(PFU/ml/g) and 7.29±0.15 log10(PFU/ml/g) and 6.55±0.14 log10(PFU/ml/g)
